Results as given in patent publication US9434724B2, “Quinuclidines for modulating alpha 7 activity” (priority 2014, dated 2016).

Legend:
hERG channels = hERG channels (Homo sapiens (Human), UniProt Q12809); assay: hERG inhibition assay (automated patch clamp, CHO cells); assay type: cell-based
Protocol: hERG study was conducted with an automated patch clamp machine, Qpatch-48HT (Sophion Biosciences, Denmark). Cultured CHO cells stably expressing hERG channels (provided by Sophion Biosciences, Denmark) were harvested from culture flasks of 70-90% cell confluence rate and prepared as cell suspension with a cell density of 3-8×10^6 cells/mL in serum-free media (CHO-S-SFM II, cat#12052 Invitrogen; 25 mM HEPES). Cells in such condition were placed into a Qpatch cell stir chamber and used within 4 hours.
For each run, cells were first spun down by the built-in Qpatch centrifuge and re-suspended in an extracellular solution (in mM, 2 CaCl2, 1 MgCl2, 4 KCl, 145 NaCl, 10 Glucose, 10 HEPES, pH 7.4, osmolarity ˜305 mOsm). Qplate-48 that holds one cell in each of its 48 channels for the later voltage-clamped assay were primed with the extracellular solution and intracellular solution (in mM, 5.4 CaCl2, 1.75 MgCl2, 120 KCl, 10 HEPES, 5 EGTA, 4 NaATP, pH 7.25, Osmolarity ˜280-295 mOsm). Cells were dispatched by Qpatch robotic dispensing guns into each Qplate channel and went through the process of giga-ohm sealing and whole cell configuration. Whole-cell recordings were performed in voltage-clamp mode at a holding potential of −80 mV. […]

Human α7 NAChR = Human α7 NAChR (Homo sapiens (Human), UniProt P36544); assay: Electrophysiology screen at 1 μM in Xenopus laevis oocytes; assay type: cell-based; conditions: 1 μM test compound; Imax = maximal current produced by 3 mM ACh
Protocol: Human α7 NAChR plasmid was prepared by GeneWiz from accession NM_000746.5. Human α7 NAChR mRNA was prepared by TriLink at a concentration near 1 μg/μL. The human α7 NAChR mRNA was diluted in sterile water to a working concentration near 10 ng/μL.
Oocytes were obtained from Xenopus laevis frogs and treated with collagenase by Ecocyte Bioscience. Oocytes were injected with the working concentration of α7 NAChR mRNA at a volume of 50 nL for a total of approximately 0.5 ng of α7 NAChR mRNA. Oocytes were maintained in Barth's solution at a temperature of 16° C. The Barth's solution was replaced daily.
Two-electrode voltage clamp recordings were made 3-14 days following mRNA injections at a holding voltage of −70 mV. The NAChR recordings were performed in Ca^++-free Ringer solution (115 mM NaCl, 2 mM KCl, 1.8 mM BaCl2, 5 mM HEPES; pH˜7.4) to limit Ca^++-activated chloride currents.
In all oocyte recordings, drug and wash solutions were applied using a custom-designed microcapillary “linear array” which allows rapid application of agonists. Currents were recorded on a PC-based computer (PClamp, Molecular Devices, Sunnyvale, Calif.). Responses were reported as (I/Imax), where I is the amount of current given by a selected concentration of drug and Imax is the amount of maximal current produced by a 3 mM solution of ACh.
Stocks of test compounds were prepared in DMSO. Test solutions in Ringer were prepared immediately before application of test compound (final DMSO concentration of 0.1%). The final concentration of test compound in the test solution was 1 μM. The test solution was perfused onto the oocyte until a peak current was recorded. There was approximately two minutes of wash time with only the Ringer solution between each application of agonist. Measurement of the test solution was repeated between 2 and 6 times with a two minute wash time between each application of test solution. An average of the currents for each test compound was used to define the response for the test compound.

CYP2C9 = CYP2C9 (Homo sapiens (Human), UniProt P11712); assay: Cytochrome P450 inhibition in human liver microsomes, CYP2C9; conditions: read-out: 2C9 IC50, Protocol 1
CYP3A4 = CYP3A4 (Homo sapiens (Human), UniProt P08684); conditions: microsomes, 5 min
CYP2C19 = CYP2C19 (Homo sapiens (Human), UniProt P33261); assay: Cytochrome P450 inhibition in human liver microsomes, CYP2C19; conditions: read-out: 2C19 IC50, Protocol 1
CYP1A2 = CYP1A2 (Homo sapiens (Human), UniProt P05177); assay: Cytochrome P450 inhibition in human liver microsomes, CYP1A2; conditions: read-out: 1A2 IC50, Protocol 1
[1] = Caco-2 permeability assay; assay type: in vitro ADME; conditions: human
Protocol: Caco-2 cells were obtained from American Tissue Culture Collection (Rockville, Md.). The cells were maintained in Modified Eagle's medium (MEM), containing 10% heat-inactivated fetal bovine serum (FCS) and 1% non-essential amino acids, in CO2 at 37° C. Cells were seeded on polycarbonate filter inserts (Millipore, CAT#PSHT 010 R5).
The cells were cultivated for 21-28 days prior to the transport experiments. The transepithelial electric resistance (TEER) and Lucifer Yellow permeability were checked routinely before and after the assay. Compounds were dissolved at 10 mM in 100% dimethyl sulfoxide (DMSO) and diluted for studies in Hank's Balanced Salt Solution (HBSS, Invitrogen, Cat#14025-092) with 25 mM HEPES, pH 7.4. Compounds were tested at 10 μM, and in both the apical-to-basolateral (A-B) and basolateral-to-apical (B-A) directions, at 37° C. for 90 min. At the end of incubation, donor samples were diluted 10-fold by assay buffer, then 60 μL of receiver and diluted-donor samples were mixed with 60 μL of acetonitrile, and analyzed by LC-MS/MS. The concentrations of the compounds were quantified by standard curve.

[2] = target: rat brain nicotinic receptor (α7 NAChR) (Rattus norvegicus (Rat), UniProt Q05941); assay type: binding; conditions: Protocol No. 2; [3H] α-Bungarotoxin 0.4 nM, rat brain P2 membrane
rat brain nicotinic receptor (α7 NAChR), sequence (Q05941 23-502 limits assumed): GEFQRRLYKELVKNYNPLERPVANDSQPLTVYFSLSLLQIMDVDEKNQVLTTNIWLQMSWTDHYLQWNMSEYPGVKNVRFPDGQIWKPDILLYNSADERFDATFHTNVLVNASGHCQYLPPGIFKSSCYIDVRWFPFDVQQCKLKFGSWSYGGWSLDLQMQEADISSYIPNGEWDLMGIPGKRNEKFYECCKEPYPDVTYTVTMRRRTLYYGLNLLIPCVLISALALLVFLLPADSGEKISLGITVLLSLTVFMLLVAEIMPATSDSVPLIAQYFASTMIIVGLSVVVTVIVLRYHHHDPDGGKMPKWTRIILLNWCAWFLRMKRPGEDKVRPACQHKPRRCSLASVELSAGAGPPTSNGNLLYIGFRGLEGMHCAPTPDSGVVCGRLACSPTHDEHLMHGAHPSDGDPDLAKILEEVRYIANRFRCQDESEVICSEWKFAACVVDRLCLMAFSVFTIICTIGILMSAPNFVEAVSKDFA

Human α7 NAChR, sequence (P36544 23-502 limits assumed): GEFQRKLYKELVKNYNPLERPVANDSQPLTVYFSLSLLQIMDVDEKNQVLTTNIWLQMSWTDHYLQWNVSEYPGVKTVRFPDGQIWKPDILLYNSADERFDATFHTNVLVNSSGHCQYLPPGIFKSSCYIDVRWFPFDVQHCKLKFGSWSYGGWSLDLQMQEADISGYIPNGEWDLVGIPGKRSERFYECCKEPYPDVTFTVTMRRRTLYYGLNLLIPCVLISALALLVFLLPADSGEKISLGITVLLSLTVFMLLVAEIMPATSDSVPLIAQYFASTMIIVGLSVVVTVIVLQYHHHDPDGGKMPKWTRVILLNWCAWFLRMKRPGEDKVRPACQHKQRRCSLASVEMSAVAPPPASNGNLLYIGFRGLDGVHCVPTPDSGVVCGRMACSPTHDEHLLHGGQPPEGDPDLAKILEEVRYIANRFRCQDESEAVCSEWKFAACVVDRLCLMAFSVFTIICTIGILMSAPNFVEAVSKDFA
hERG channels, sequence (Q12809 whole entry): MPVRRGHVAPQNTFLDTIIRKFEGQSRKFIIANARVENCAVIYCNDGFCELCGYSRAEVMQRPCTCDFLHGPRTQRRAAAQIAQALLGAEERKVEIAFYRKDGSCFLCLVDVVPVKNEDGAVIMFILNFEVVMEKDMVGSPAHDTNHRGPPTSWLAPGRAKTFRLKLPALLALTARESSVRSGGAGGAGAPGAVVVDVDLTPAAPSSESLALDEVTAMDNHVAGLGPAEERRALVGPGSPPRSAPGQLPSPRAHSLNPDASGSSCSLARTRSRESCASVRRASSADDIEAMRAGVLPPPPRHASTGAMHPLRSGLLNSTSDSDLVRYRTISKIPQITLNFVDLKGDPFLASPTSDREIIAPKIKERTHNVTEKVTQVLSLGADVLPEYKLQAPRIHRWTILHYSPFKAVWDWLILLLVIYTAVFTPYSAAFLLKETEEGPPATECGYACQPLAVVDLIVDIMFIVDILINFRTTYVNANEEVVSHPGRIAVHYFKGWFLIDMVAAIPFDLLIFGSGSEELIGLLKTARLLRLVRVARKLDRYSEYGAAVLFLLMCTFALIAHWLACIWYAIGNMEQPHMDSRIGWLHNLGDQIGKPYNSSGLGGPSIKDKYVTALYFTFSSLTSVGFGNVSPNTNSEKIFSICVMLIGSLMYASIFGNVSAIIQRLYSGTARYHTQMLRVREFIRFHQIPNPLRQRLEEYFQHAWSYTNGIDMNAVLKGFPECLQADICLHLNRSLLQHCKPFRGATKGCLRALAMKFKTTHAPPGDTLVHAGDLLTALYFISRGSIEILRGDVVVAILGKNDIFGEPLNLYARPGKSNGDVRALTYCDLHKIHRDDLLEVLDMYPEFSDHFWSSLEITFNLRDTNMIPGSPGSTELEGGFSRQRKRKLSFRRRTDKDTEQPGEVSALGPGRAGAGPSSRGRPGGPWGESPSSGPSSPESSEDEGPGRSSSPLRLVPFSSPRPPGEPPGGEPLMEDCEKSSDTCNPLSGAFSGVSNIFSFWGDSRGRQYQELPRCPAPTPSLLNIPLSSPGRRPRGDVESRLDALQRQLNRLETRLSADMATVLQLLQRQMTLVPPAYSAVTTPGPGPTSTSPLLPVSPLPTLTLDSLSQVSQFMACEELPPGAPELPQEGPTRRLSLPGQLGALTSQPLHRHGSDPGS
CYP3A4, sequence (P08684 whole entry): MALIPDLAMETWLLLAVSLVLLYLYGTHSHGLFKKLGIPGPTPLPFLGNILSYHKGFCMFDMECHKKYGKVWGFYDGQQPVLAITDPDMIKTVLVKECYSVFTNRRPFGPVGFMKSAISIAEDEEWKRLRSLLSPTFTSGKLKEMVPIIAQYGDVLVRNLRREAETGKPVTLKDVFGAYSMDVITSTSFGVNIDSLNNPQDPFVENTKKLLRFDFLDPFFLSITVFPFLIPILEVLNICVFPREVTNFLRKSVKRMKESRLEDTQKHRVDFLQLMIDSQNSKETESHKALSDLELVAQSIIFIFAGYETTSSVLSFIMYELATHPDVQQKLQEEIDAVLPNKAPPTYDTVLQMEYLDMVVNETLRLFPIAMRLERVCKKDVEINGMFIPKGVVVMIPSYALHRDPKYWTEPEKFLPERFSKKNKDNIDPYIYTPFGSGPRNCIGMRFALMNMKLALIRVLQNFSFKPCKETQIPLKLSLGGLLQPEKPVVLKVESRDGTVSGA
CYP2C19, sequence (P33261 whole entry): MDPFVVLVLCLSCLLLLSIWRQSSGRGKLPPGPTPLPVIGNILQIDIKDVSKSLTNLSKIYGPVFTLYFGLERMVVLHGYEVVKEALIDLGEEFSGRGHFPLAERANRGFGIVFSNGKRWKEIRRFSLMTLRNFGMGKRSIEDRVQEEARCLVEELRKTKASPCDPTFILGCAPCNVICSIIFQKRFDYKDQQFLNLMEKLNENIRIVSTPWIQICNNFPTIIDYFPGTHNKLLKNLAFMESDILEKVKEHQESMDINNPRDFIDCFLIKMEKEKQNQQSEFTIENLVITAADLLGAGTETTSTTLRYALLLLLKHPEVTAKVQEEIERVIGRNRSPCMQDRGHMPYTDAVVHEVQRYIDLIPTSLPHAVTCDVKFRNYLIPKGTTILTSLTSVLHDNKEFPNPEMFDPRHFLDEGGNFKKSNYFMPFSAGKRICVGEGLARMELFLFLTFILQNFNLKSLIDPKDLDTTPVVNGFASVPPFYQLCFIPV
CYP1A2, sequence (P05177 whole entry): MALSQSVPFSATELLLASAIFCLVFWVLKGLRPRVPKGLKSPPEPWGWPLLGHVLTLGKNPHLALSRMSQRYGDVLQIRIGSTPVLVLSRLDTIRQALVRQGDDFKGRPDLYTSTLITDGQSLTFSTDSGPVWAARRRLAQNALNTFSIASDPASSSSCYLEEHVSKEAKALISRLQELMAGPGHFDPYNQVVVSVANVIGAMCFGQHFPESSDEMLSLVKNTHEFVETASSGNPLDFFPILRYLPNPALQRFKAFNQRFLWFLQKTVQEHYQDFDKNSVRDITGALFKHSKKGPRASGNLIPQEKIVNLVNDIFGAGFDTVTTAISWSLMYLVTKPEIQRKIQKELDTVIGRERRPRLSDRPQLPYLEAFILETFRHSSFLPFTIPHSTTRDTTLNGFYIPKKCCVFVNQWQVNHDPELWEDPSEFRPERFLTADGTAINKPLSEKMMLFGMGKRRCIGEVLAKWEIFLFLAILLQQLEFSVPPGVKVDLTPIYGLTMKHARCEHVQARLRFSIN
CYP2C9, sequence (P11712 whole entry): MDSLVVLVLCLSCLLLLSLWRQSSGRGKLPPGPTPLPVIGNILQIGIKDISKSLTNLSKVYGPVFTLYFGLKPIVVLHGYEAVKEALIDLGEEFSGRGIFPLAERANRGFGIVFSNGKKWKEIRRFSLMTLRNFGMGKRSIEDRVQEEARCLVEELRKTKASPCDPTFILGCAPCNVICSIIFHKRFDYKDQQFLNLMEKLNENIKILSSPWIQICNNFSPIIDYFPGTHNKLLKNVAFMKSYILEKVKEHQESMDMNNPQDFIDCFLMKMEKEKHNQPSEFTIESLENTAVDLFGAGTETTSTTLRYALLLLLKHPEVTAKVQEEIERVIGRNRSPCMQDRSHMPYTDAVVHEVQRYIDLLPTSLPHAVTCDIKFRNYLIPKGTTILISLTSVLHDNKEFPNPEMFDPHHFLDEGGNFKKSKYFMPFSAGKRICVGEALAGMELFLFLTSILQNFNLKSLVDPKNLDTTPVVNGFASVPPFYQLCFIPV

Q: Which IC50 (hERG channels) does the source give for Cc1cc(Cl)c2c(C(=O)OCC34CCN(CC3)CC4)c[nH]c2c1.Cl [Compound 65, quinuclidin-4-ylmethyl 4-chloro-6-methyl-1H-indole-3-carboxylate hydrochloride] here?
A: Its IC50 is 2430 nM.

Q: And the I/Imax (Human α7 NAChR)?
A: Its I/Imax is 0.212.

Q: What does the source list for O=C(OCC12CCN(CC1)CC2)c1c[nH]c2cc(O)cc(Cl)c12 [Compound 46, quinuclidin-4-ylmethyl 4-chloro-6-hydroxy-1H-indole-3-carboxylate]?
A: IC50 (CYP2C9): > 10000 nM; IC50 (hERG channels): > 30000 nM; IC50 (CYP3A4): > 10000 nM; IC50 (CYP2C19): > 10000 nM; IC50 (CYP1A2): > 10000 nM

Q: What does the source list for COc1c(OCC(F)(F)F)ccc2[nH]cc(C(=O)OCC34CCN(CC3)CC4)c12 [Compound 88, quinuclidin-4-ylmethyl 4-methoxy-5-(2,2,2-trifluoroethoxy)-1H-indole-3-carboxylate]?
A: efflux ratio at 90 min, 10 μM ([1]; pH 7.4, Caco-2, 10 μM): 7.86; Papp A→B at 90 min, 10 μM ([1]; pH 7.4, Caco-2, apical-to-basolateral, 10 μM): 3.25 ×10⁻⁶ cm/s; Papp B→A at 90 min, 10 μM ([1]; pH 7.4, Caco-2, basolateral-to-apical, 10 μM): 25.5 ×10⁻⁶ cm/s; I/Imax (Human α7 NAChR): 0.185; IC50 [2]: 211 nM; Ki [2]: 356 nM
